Results published in EP1660440B1, “ACYLOXYALKYL CARBAMATE PRODRUGS, METHODS OF SYNTHESIS AND USE” (priority 2003, dated 2005).

How the values were obtained:
[1] = human, in vivo; cited from earlier work
[2] = physchem; settings: aqueous buffer
Protocol: (§1) The stabilities of prodrugs were evaluated in one or more in vitro systems using a variety of tissue preparations following methods known in the art. The chemical stability of prodrugs in aqueous buffers at pH's of 2.0, 7.4 and 8.0 were also measured. […] Each preparation was incubated with test compound at 37°C for one hour. Aliquots (50 µL) were removed at 0, 30, and 60 min and quenched with 0.1 % trifluoroacetic acid in acetonitrile.

[3] = Pancreatin stability; type: in vitro ADME, porcine; settings: pig, 5 µM, pH 7.5, 37 °C, after 60 min; for metabolised at 1 h, 5 µM: pancreatin, pH 7.5, 1 % (w/v) pancreatin, read-out: % of Baclofen Released; for remaining at 1 h, 5 µM: 1 % (w/v) pancreatin, read-out: % of Prodrug Remaining
Protocol: Pancreatin Stability: Stability studies were conducted by incubating prodrug (5 µM) with 1 % (w/v) pancreatin (Sigma, P-1625, from porcine pancreas) in 0.025 M Tris buffer containing 0.5 M NaCl (pH 7.5) at 37 °C for 60 min. The reaction was stopped by addition of 2 volumes of methanol. After centrifugation at 14,000 rpm for 10 min, the supernatant was removed and analyzed by LC/MS/MS.

[4] = in vitro; settings: human, Caco-2
Protocol: (§2) For example, cellular permeability may be evaluated by examining the flux of a prodrug across a cultured polarized cell monolayer (e.g., Caco-2 cells). Caco-2 cells obtained from continuous culture (passage less than 28) were seeded at high density onto Transwell polycarbonate filters. Cells were maintained with DMEM / 10% fetal calf serum + 0.1 mM nonessential amino acids + 2 mM L-Gln, 5% CO2/ / 95% O2, 37°C until the day of the experiment. Permeability studies were conducted at pH 6.5 apically (in 50 mM MES buffer containing 1 mM CaCl2, 1mM MgCl2, 150 mM NaCl, 3 mM KCl, 1 mM NaH2PO4, 5 mM glucose) and pH 7.4 basolaterally (in Hanks' balanced salt solution containing 10 mM HEPES) in the presence of efflux pump inhibitors (250 µM MK-571, 250 µM Verapamil, 1 mM Ofloxacin). Inserts were placed in 12 or 24 well plates containing buffer and incubated for 30 min at 37C°. Prodrug (200 µM) was added to the apical or basolateral compartment (donor) and concentrations of prodrug and/or released parent drug in the opposite compartment (receiver) were determined at intervals over 1 hour using LC/MS/MS. Values of apparent permeability (Papp) were calculated using the equation: Papp = Vr (dC/dt)//(ACo) [formula]
(§3) Here Vr is the volume of the receiver compartment in mL; dC/dt is the total flux ofprodrug and parent drug (µM/s), determined from the slope of the plot of concentration in the receiver compartment versus time; Co is the initial concentration of prodrug in µM; A is the surface area of the membrane in cm^2.

[5] = in vitro; settings: human, plasma
Protocol: as §1

[6] = in vitro; settings: human
Protocol: For stability studies, prodrug (5 µM) was incubated in Caco-2 homogenate S9 fraction (0.5 mg protein per mL) for 60 min at 37°C. Concentrations of intact prodrug and released baclofen were determined at zero time and 60 minutes using LC/MS/MS.

[7] = in vitro; settings: rat, plasma
Protocol: as §1

[8] = in vitro; settings: rat; for remaining at 1 h, 2 µM: liver s9, % of Prodrug Remaining
Protocol: as §1

[9] = in vitro; settings: human; for remaining at 1 h, 2 µM: liver s9, % of Prodrug Remaining
Protocol: as §1

[10] = test system: Caco-2 cells; settings: human, Caco-2, 200 uM
Protocol: as §2, §3

[11] = Caco-2 cellular permeability of prodrugs; settings: human
Protocol: as §2, §3

[12] = type: in vivo; settings: cynomolgus monkeys, intravenous bolus, 1.2 mg/kg
Protocol: R-Baclofen hydrochloride salt was administered to four male cynomolgus monkeys as an aqueous solution by intravenous bolus injection into the saphenous vein at a dose of 1.2 mg/kg. Blood samples were obtained from all animals at intervals over 24 hours post-dosing. Blood was processed immediately for plasma at 4°C. All plasma samples were subsequently analyzed for R-baclofen using the LC/MS/MS assay described above. The mean R-baclofen exposure AUCinf = 3.6 h.µg/mL.

Compound	degraded at 1 h ([2]; pH 2) [%]	degraded at 1 h ([2]; pH 7.4) [%]	degraded at 1 h ([2]; pH 8) [%]	metabolised at 1 h, 5 µM [3] [%]	remaining at 1 h, 5 µM [3] [%]	Papp A→B at 200 µM [4] [×10⁻⁶ cm/s]	Papp B→A at 200 µM [4] [×10⁻⁶ cm/s]	metabolised at 1 h, 2 µM [5] [%]	metabolised at 1 h, 5 µM ([6]; s9) [%]	metabolised at 1 h, 2 µM [7] [%]	metabolised at 1 h, 2 µM ([8]; s9) [%]	metabolised at 1 h, 2 µM ([9]; s9) [%]	degraded at 1 h ([2]; pH 2, % of Baclofen Released) [%]	degraded at 1 h ([2]; pH 7.4, % of Baclofen Released) [%]	degraded at 1 h ([2]; pH 8, % of Baclofen Released) [%]	metabolised at 1 h, 2 µM ([5]; % of Baclofen Released) [%]	metabolised at 1 h, 5 µM ([6]; caco-2 homogenate s9) [%]	metabolised at 1 h, 2 µM ([8]; liver s9) [%]	remaining at 1 h, 2 µM [8] [%]	metabolised at 1 h, 2 µM ([9]; liver s9) [%]	also measured
NCC(CC(=O)O)c1ccc(Cl)cc1 (racemic) [Baclofen, (±)-4-Amino-3-(4-chlorophenyl)butanoic acid]	–	–	–	–	–	–	–	–	–	–	–	–	–	–	–	–	–	–	–	–	elimination half-life [1]: 3 to 4 h
CCCC(=O)OCOC(=O)NC[C@H](CC(=O)O)c1ccc(Cl)cc1 [(16), Sodium 4-[(Butanoyloxymethoxy)carbonylamino]-(3R)-(4-chlorophenyl)-butanoate]	0	0	0	84	1	6.1	1.2	20	100	40	100	100	–	–	–	–	–	–	–	–	–
CC(C)C(=O)OCOC(=O)NC[C@H](CC(=O)O)c1ccc(Cl)cc1 [(18), Sodium 4-[(Isobutanoyloxymethoxy)carbonylamino]-(3R)-(4-chlorophenyl)-butanoate]	0	0	0	91	2	6.4	5.6	27	100	60	100	100	–	–	–	–	–	–	–	–	–
CCCC(=O)OC(OC(=O)NC[C@H](CC(=O)O)c1ccc(Cl)cc1)C(C)C (some centres unmarked) [(27)]	–	–	–	9	71	–	–	–	–	88	–	–	0	0	1	12	67	89	0	79	Ratio A-BB-A [10]: 6.9; remaining at 1 h, 2 µM [9]: 8%; Papp A→B at 200 µM [11]: 65 ×10⁻⁶ cm/s; Papp B→A at 200 µM [11]: 9.4 ×10⁻⁶ cm/s
CC(=O)OC(C)OC(=O)NC[C@H](CC(=O)O)c1ccc(Cl)cc1 (stereo partly drawn) [(30), Sodium 4-[(1-Acetoxyethoy)carbonylamino]-(3R)-(4-chlorophenyl)-butanoate]	0	1	3	9	90	8.7	2.3	8	70	42	85	87	–	–	–	–	–	–	–	–	–
CC(C)C(OC(=O)NC[C@H](CC(=O)O)c1ccc(Cl)cc1)OC(=O)C(C)(C)C (stereo partly drawn) [(43), Sodium 4-[(1-Pivaloyloxyisobutoxy)carbonylamino]-(3R)-(4-chlophenyl)-butanoate]	–	–	–	4	82	–	–	–	–	29	–	–	0	0	0	2	49	97	3	39	Ratio A-BB-A [10]: 2.3; remaining at 1 h, 2 µM [9]: 61%; Papp A→B at 200 µM [11]: 42 ×10⁻⁶ cm/s; Papp B→A at 200 µM [11]: 18 ×10⁻⁶ cm/s
CCCC(=O)O[C@H](CCC)OC(=O)NC[C@H](CC(=O)O)c1ccc(Cl)cc1 [(86), Sodium 4-{[(1S)-Butanoyloybutoxy]carbonylamino}-(3R)-(4-chlorophenyl)-butanoate]	–	–	–	76	4	–	–	–	–	83	–	–	0	1	2	13	95	92	2	87	remaining at 1 h, 2 µM [9]: 2%
Cl.NC[C@H](CC(=O)O)c1ccc(Cl)cc1 [R-Baclofen hydrochloride salt]	–	–	–	–	–	–	–	–	–	–	–	–	–	–	–	–	–	–	–	–	mean R-baclofen exposure AUCinf [12]: 3.6 µg·h/mL
